Assay results taken from US9000012B2 (priority 2009, dated 2015).

What was measured:
[1] = logP of the compounds of table 1; assay type: physicochemical
Phytophthora infestans = assay type: in vivo, Phytophthora infestans on tomato; conditions: preventive spray on young tomato plants, 500 ppm of active ingredient, inoculated one day after treatment, evaluated 7 days after inoculation; 0% = untreated control, 100% = no disease

Question: Which logP [1] does the source give for COc1ccc(CC(=O)Nc2cccc(CON=C(C(=O)N(C)C)c3ccccc3)n2)cc1 [Example 112] here?
Answer: 3.00

Question: What about the Efficacy (Phytophthora infestans) of the same compound?
Answer: 100%

Question: With CN(C)C(=O)C(=NOCc1cccc(NC(=O)C(F)(F)Oc2ccccc2)n1)c1ccccc1 [Example 110] as the compound, how does the logP [1] read?
Answer: 3.73

Question: And the Efficacy (Phytophthora infestans)?
Answer: 70%

Question: For C#CCC(C)OC(=O)Nc1cccc(CON=C(C(=O)N(C)C)c2ccccc2)n1 (centres unmarked) [Example 101], which logP [1] is on record?
Answer: 3.07

Question: What about the Efficacy (Phytophthora infestans) of the same compound?
Answer: 95%

Question: Which results are given for CC(Oc1ccccc1)C(=O)Nc1nc(CON=C(C(=O)N(C)C)c2ccccc2)cs1 (centres unmarked) [Example 130]?
Answer: logP [1]: 3.21; Efficacy (Phytophthora infestans): 100%

Question: For CN(C)C(=O)C(=NOCc1csc(NC(=O)C2COc3ccccc3O2)n1)c1ccccc1 (centres unmarked) [Example 129], which logP [1] is on record?
Answer: 3.15

Question: What about the Efficacy (Phytophthora infestans) of the same compound?
Answer: 92%

Question: Which logP [1] does the source give for CC(Oc1ccccc1)C(=O)Nc1cccc(CON=C(C(=O)N(C)C)c2ccccc2)n1 (centres unmarked) [Example 111] here?
Answer: 3.50

Question: What about the Efficacy (Phytophthora infestans) of the same compound?
Answer: 92%

Question: Which results are given for C#CCCOC(=O)Nc1cccc(CON=C(C(=O)N(C)C)c2ccccc2)n1 [Example 100]?
Answer: logP [1]: 1.83; Efficacy (Phytophthora infestans): 70%
